Measured values: patent US20140315738A1, “MARINE MEDAKA GENES RESPONDING TO THE EXPOSURE OF ENDOCRINE-DISRUPTING CHEMICALS, AND METHOD FOR DIAGNOSING AN AQUATIC ECO-SYSTEM CONTAMINATION USING SAME” (priority 2011, published 2014)

Tested on: Javanese medaka (Oryzias javanicus) livers
Assay: real-time quantitative PCR of liver gene expression after exposure to BPA
Type: in vivo
Details: 76 μg/L, 48 hr, β-actin control gene
Experimental: To 3 L beaker with 2 L filtered seawater therein, 10 male Javanese medaka bred in culture water tank were transported each time, and acclimated for 24 hr. […] Additionally, five Javanese medaka of Example <1-1> were exposed to BPA (76 μg/L) for 48 hr. […] The Javanese medaka was transported to ice water, one at a time, which momentarily stunned it, followed by beheading and evisceration and liver removal.
Primers for real-time quantitative PCR (RT-PCR) for the above genes were designed and synthesized, and sequences of the primers of the genes for real time quantitative PCT are listed in Table 6 below.
With RNA template extracted with the method of Example <2-1>, cDNA was synthesized using AB High Capacity RAN-to-cDNA Kit (Applied Biosystems, USA). RNA in the amount of 1 μg was seeded, added with distilled water and titrated to 9 μl. 2×RT buffer (10 μl), and 20× enzyme Mix 1 μl were mixed well, centrifuged and precipitated, and allowed to react at 37° C. for 60 min. The reactant was heated at 95° C. for 5 min, after which reaction was completed. The synthesized cDNA was stored at −20° C.
To the 0.5 μg synthesized cDNA (corresponding to approximately 10 ng/μl), 0.8 primer pairs of corresponding genes (10 pmol/μl), and 2 SYBR1 mixture (10 μl) were added. The final amount was titrated to 20 μl using distilled water. At temperature condition of 95° C. 10 min, 95° C. 30 sec, 60° C. 30 sec, 72° C. 30 sec, 40 cycles of PCR were conducted.
CT values of the respective samples after exposure to BPA between control genes (β-actin) and genes of interest were compared with each other, and the relative expression differences of the genes of interest were quantified into relative values according to Relative Standard Curve (Table 7).

CC(C)(c1ccc(O)cc1)c1ccc(O)cc1 [BPA, Bisphenol A]
Fold difference, Apolipoprotein E1 (AP): +2.30 fold | Fold difference, Arylamine N-acetyl transferase (ANAT): −1.69 fold | Fold difference, Basigin (Bsgn): +4.25 fold | Fold difference, C1q-like adipose specific protein (C-ASP): −2.17 fold | Fold difference, Calcium binding protein P22 (CBP-P22): +1.19 fold | Fold difference, Catalase (Cat): −1.49 fold | Fold difference, Ceruloplasmin (Cer): +2.09 fold | Fold difference, Chitinase (Chi): −5.56 fold | Fold difference, Choline kinase (Chka): +4.18 fold | Fold difference, Choriogenin L (ChL): +50.00 fold | Fold difference, Complement component C8 beta (C8): −1.37 fold | Fold difference, Complement factor B/C2-B (CF-B/C2): −2.27 fold | Fold difference, Delta 6-desaturase (FD6D): +1.43 fold | Fold difference, Delta-6 fatty acyl desaturase (FADSD6): −1.39 fold | Fold difference, Glutaminase (Gls): −1.35 fold | Fold difference, Glutathione S-transferase (Gst): −1.85 fold | Fold difference, Hepcidin (Hep): −1.14 fold | Fold difference, Leukocyte elastase inhibitor (LE): +1.12 fold | Fold difference, Lipoprotein lipase (LPL): +1.11 fold | Fold difference, N-acetyltransferase (NAT13): −2.50 fold | Fold difference, Plasminogen (Plg): +1.25 fold | Fold difference, Retinol binding protein 4 (RBP4): +1.12 fold | Fold difference, Ring finger protein 141 (RFP): +1.23 fold | Fold difference, TBT-binding protein (TBT-bp): −1.66 fold | Fold difference, Transferrin (TF): −1.30 fold | Fold difference, Uridine phosphorylase 2 (Upp2): −1.72 fold | Fold difference, Vitellogenin 1 (Vit1): −100.00 fold | Fold difference, Warm temperature acclimation (C243) (Wap65): +1.07 fold
